# Measured values as given in patent US20200055041A1, “DEVICE, SYSTEM AND METHODS FOR ELECTROPHYSIOLOGICAL INTERROGATION OF CELLS AND TISSUES” (Nanosurface Biomedical, Inc., priority 2017, published 2020).
# Read-outs that look alike come from different tables or passages of the source.
# How the values were obtained:
# patterned hPSC-CMs = assay: Fluorometric cellular ROS / NO / superoxide detection assay in patterned hPSC-CMs; assay type: cell-based, human; conditions: patterned cells
# Method: PGC1-α is known to perform a central controlling role in global oxidative metabolism through induction of mitochondrial biogenesis and tuning of the intrinsic metabolic properties of mitochondria_ENREF_35. […] Based on this understanding, a fluorometric cellular ROS detection assay was performed on unpatterned and patterned hPSC-CMs to determine whether upregulation of the PGC1-α protein in patterned cells had any notable impact on oxidative stress. FIGS. 8A-8F show the effect of nanotopography on expression of oxidative stress markers in cultured hPSC-CMs. […] Samples analyzed were patterned cells treated with an NO scavenger (NO−), patterned cells treated with an NO inducer (NO+), untreated unpatterned cells, and untreated patterned cells. […] No difference was observed between flat and patterned samples. […] Samples analyzed were patterned cells treated with an ROS inhibitor (ROS−), patterned cells treated with an ROS inducer (ROS+), untreated unpatterned cells, and untreated patterned cells. […] […] A significant difference was also observed between flat and patterned samples. In all presented data, *p<0.05.
# [1] = test system: HCM hPSC-CMs (MYH7 R663H variant); assay: Depolarizing spike slope of HCM patient-derived hPSC-CMs on flat and patterned MEAs; assay type: cell-based, human; conditions: 1 μM, 30 minutes, patterned HCM cells
# Text: Hypertrophic cardiomyopathy (HCM) manifests as a thickening of the myocardial tissue, typically due to mutations in genes encoding specific sarcomeric proteins.
# FIG. 14A depicts an immunostained image of hPSC-CMs obtained from HCM patients and maintained on flat Nafion substrates. FIG. 14B depicts an immunostained image of hPSC-CMs obtained from an unaffected family member related to the examined HCM patient and maintained on flat Nafion substrates. FIG. 14C depicts an immunostained image of hPSC-CMs obtained from HCM patients and maintained on patterned Nafion substrates. FIG. 14D depicts an immunostained image of hPSC-CMs obtained from an unaffected family member related to the examined HCM patient and maintained on patterned Nafion substrates. FIG. 14E depicts quantification of sarcomere length measured from HCM and familial control hPSC-CMs maintained on flat and patterned Nafion substrates. FIG. 14F depicts quantification of z-band width measured from HCM and familial control hPSC-CMs maintained on flat and patterned Nafion substrates. FIG. 14G depicts representative QRS complex traces collected from HCM hPSC-CMs on flat and patterned MEAs. FIG. 14H depicts fold-change in average spike slope (Q-R angle) measured across 30 beats from normal and HCM hPSC-CMs on flat and patterned MEAs. […]
# hPSC-CM monolayers [2] = assay: MEA field potential recording (FPDc, arrhythmia) of hPSC-CM monolayers on flat MEAs and nanoMEAs
# Text: Median difference in beat interval (ΔBI), mean ΔBI, and the standard deviation of the ΔBI were compared in order to provide quantification of baseline arrhythmic properties in line with previously published methods.
# The ability to pattern individual wells within a multiwell MEA plate enabled assessment of multiple doses across both surface conditions within a single device, thereby increasing throughput for such comparative studies. Verapamil was first examined as a negative control compound.
# FIG. 12A depicts representative traces (averaged across 10 beats) recorded from hPSC-CM monolayers on flat MEAs and subjected to increasing doses of verapamil. FIG. 12B depicts representative traces recorded from hPSC-CM monolayers on nanoMEAs and subjected to increasing doses of verapamil. FIG. 12C depicts normalized dose response curve illustrating the effect for increasing concentrations of verapamil on the field potential durations corrected for beat rate (FPDc) of unpatterned and patterned hPSC-CMs.
# […] depicts representative traces recorded from hPSC-CM monolayers on flat MEAs and subjected to increasing doses of cisapride. […] depicts representative traces recorded from hPSC-CM monolayers on nanoMEAs and subjected to increasing doses of cisapride. FIG. 12F depicts normalized dose response curve illustrating the effect of increasing concentrations of cisapride on the FPDc of unpatterned and patterned hPSC-CMs.
# The mechanism by which bepridil prolongs QT is yet to be fully elucidated. However, in addition to regulating Ca^2+ release, it is known that bepridil competes with cTnI for troponin C binding sites, thereby altering Ca^2+ sensitivity in exposed cells. […] FIG. 12G depicts representative traces recorded from hPSC-CM monolayers on flat MEAs and subjected to increasing doses of bepridil. FIG. 12H depicts representative traces recorded from hPSC-CM monolayers on nanoMEAs and subjected to increasing doses of bepridil. FIG. 12I depicts normalized dose response curve illustrating effect of increasing concentrations of bepridil on the FPDc of unpatterned and patterned hPSC-CMs.
# hPSC-CM monolayers [3] = assay: MEA conduction velocity (TCV, LCV) across hPSC-CM monolayers on flat and nanotopographically-patterned MEAs; assay type: cell-based, human; conditions: for IC50: Homo sapiens, longitudinal conduction velocity, read-out: IC50 from LCV data
# Text: Additionally, interrogation of monolayer culture by MEA facilitates assessment of conduction velocity in a manner that is difficult when using single cell analysis methods, such as patch clamp electrophysiology. For all propagation experiments discussed herein, longitudinal conduction dictates the vertical orientation on the MEA as all nanopatterns were oriented to run vertically during pattern generation. FIG. 6I depicts measurement of conduction velocity (CV) across hPSC-CM monolayers on flat and nanotopographically-patterned MEAs. Conduction was measured specifically in both the transverse (TCV) and longitudinal (LCV) orientations and underlying nanotopography was organized to run longitudinally. In all presented data, *p<0.03, **p<0.003, ***p<0.001. […] Furthermore, longitudinal conduction velocities measured from patterned cells were substantially faster than similar measurements taken from flat controls, as well as global (non-directional) conduction velocity measurements. Specifically, longitudinal conduction velocity measured from patterned cells was recorded as 32.73 cm/s±9.51, whereas flat controls produced longitudinal and global conduction speeds of 10.32 cm/s±2.62 and […], respectively.
# In cardiac tissue, it is known to exert a strong conduction blocking effect, inhibiting action potential propagation and in turn affecting synchronous contraction of the tissue.
# Dose response curves were calculated from analysis of propagation speeds in both the transverse (TCV) and longitudinal (LCV) directions. The R^2 values for TCV and LCV curve fits were 0.23 and 0.11, respectively. […] The R^2 values for TCV and LCV curve fits were 0.21 and 0.28, respectively.
# Furthermore, the inconsistency of the propagation waves on these surfaces led to substantial variability in measured values across experimental repeats, making it difficult to construct well-fitted dose response curves. […] Residual values indicate the vertical distance (in Y units; in this case % change in conduction velocity) of the measured points from the fit line.
# 3D cardiac tissues = assay: Field potential duration of 3D cardiac tissues on nanoMEA; assay type: cell-based; conditions: increasing doses, 3D patterned versus 2D unpatterned and 2D patterned, 21 days culture
# Method: FIG. 15 depicts engineered cardiac tissue responses to treatment with increasing doses of the hERG channel blocker cisapride on 2D unpatterned, 2D patterned and 3D patterned cell cultures. […] In this experiment, cells are first plated onto a nanoMEA substrate in a 4 μL droplet of medium. 17,500 cells are resuspended in this droplet and allowed to adhere to the substrate for 1 hour. At this point, a further 17,500 cells in 2 μL of medium are plated on top of the existing droplet and allowed to adhere to the first layer of cells. This process is repeated 2 more times to form 4 layers of cells on top of the patterned substrate. Cells on the first layer align in parallel with the underlying substrate and subsequent layers align in parallel with the layer below. Cardiomyocytes are mixed with cardiac fibroblasts at a ratio of 10 cardiomyocytes to 1 fibroblast. An hour after the last plating, the MEA wells are flooded with additional medium to maintain the cells and the constructs are then cultured out to 21 days before being used for drug screening assessment.
# [4] = unpatterned and patterned cells, increasing doses
compound,measurement,setting,value
CC(=O)N[C@@H](CS)C(=O)O [N-acetyl-L-cysteine],"pixel intensity, oxidative stress detection reagent",patterned hPSC-CMs,"significantly lower than all other groups examined, with the exception of the patterned samples"
same,"pixel intensity, superoxide detection reagent",patterned hPSC-CMs,significantly lower than all other groups
Cn1c2cccc(=O)c-2nc2ccccc21 [Pyocyanin],"pixel intensity, oxidative stress detection reagent",patterned hPSC-CMs,significantly higher values then all other groups
same,"pixel intensity, superoxide detection reagent",patterned hPSC-CMs,significantly higher than all other groups
c-PTIO,"pixel intensity, NO detection reagent",patterned hPSC-CMs,significantly lower than all other groups
COc1ccc(CCN(C)CCCC(C#N)(c2ccc(OC)c(OC)c2)C(C)C)cc1OC (stereo not shown) [verapamil],effect on depolarizing spike slope,[1],improved patterned HCM spike slopes
same,arrhythmogenic effect,hPSC-CM monolayers [2]; [4],no notable arrhythmogenic effect
same,effect on FPDc / field potential,hPSC-CM monolayers [2]; [4],significant shortening of FPDc
CC1(C)[C@@H](OC(=O)CCC(=O)O)CC[C@]2(C)[C@H]3C(=O)C=C4[C@@H]5C[C@@](C)(C(=O)O)CC[C@]5(C)CC[C@@]4(C)[C@]3(C)CC[C@@H]12 [carbenoxolone],IC50,hPSC-CM monolayers [3]; flat hPSC-CM monolayers,398 nM
same,IC50,hPSC-CM monolayers [3]; nanotopographically-patterned hPSC-CM monolayers,14.7 nM
same,effect on conduction speeds,"hPSC-CM monolayers [3]; in vitro, nanoMEA platform",significantly reduced conduction speeds
COc1cc(N)c(Cl)cc1C(=O)NC1CCN(CCCOc2ccc(F)cc2)CC1OC (stereo not shown) [cisapride],effect on FPDc / field potential,hPSC-CM monolayers [2],significant prolongation of the field potential
same,FPDc prolongation,"hPSC-CM monolayers [2]; 1 μM, cells on both substrates",~50%
same,"field potential duration prolongation, 3D versus 2D cultures",3D cardiac tissues,significantly stronger reactions
N=C(N)NCCC[C@H](N)C(=O)O [L-arginine],"pixel intensity, NO detection reagent",patterned hPSC-CMs,significantly higher than all other groups
CC(C)COCC(CN(Cc1ccccc1)c1ccccc1)N1CCCC1 (stereo not shown) [bepridil],change in FPDc,hPSC-CM monolayers [2],not significantly different from baseline
same,effect on FPDc,hPSC-CM monolayers [2],significant prolongation of FPDc
same,change in FPDc from baseline,"hPSC-CM monolayers [2]; 1 μM, flat cells",7%
same,increase of FPDc from baseline,"hPSC-CM monolayers [2]; 1 μM, patterned cells",roughly 20%
